Values of other authors in US6387352B1, “Mouthwash compositions” (Erling Johansen, priority 1996, dated 2002).

Conditions: compared to similar solutions excluding fluoride

F [fluoride]
increase in hardness of dental enamel on addition of fluoride to calcium/phosphate solution: (about) four times increase in hardness
